Values quoted from earlier work in patent US20150190345A1, “Controlled Release Formulations of Lorazepam” (priority 2014, published 2015).

Tests used:
[1] = according to the package insert

In the case of `O=C1Nc2ccc(Cl)cc2C(c2ccccc2Cl)=NC1O` (centres unmarked) [Lorazepam, 7-chloro-5-(2-chlorophenyl)-1,3-dihydro-3-hydroxy-2H-1,4-benzodiazepin-2-one], the “half-life in human plasma” value [1] is given as “about 12 hours” and the solubility in water is given as “almost insoluble in water”.
